Common to all, as to assay type: functional, cell-based
Experiment [1] concerns HepG2. The experiment can be described thus: Hepatoprotective activity against APAP-induced toxicity in human HepG2 cells assessed as cell survival rate at 10 uM incubated for 48 hrs by MTT assay. Background: Tetrazolium assays rely on reduction of a dye to a coloured formazan, in cell work by metabolically active cells.
Experiment [2] deals with A549. As to the kind of experiment: Cytotoxicity against human A549 cells assessed as reduction in cell viability incubated for 24 hrs by MTT assay. As to conditions: A549, 24 h.
Experiment [3] concerns HepG2. As to the kind of experiment: Cytotoxicity against human HepG2 cells assessed as reduction in cell viability incubated for 24 hrs by MTT assay. As to conditions: HepG2, 24 h.

pIC50: −log10 of the molar value. Active and inactive are the calls of the source. The calls are words filed in the database; no cut-off is given here.

Consider 6 compounds from ChEMBL document CHEMBL5154680, “Seco and Nor-seco Isodhilarane-Type Meroterpenoids from Penicillium purpurogenum and the Configuration Revisions of Related Compounds” (J Nat Prod, 2022).

Take `C[C@H]1O[C@@H]2OC(=O)[C@]3(C)C[C@@H]4[C@](C)(C(=O)C=C5C(=CC(=O)OC5(C)C)[C@@]45CO5)[C@H](C1=O)[C@H]23`: in experiment [1], the outcome was Active.

Take `COC(=O)[C@]12C(=O)[C@@H](C)O[C@@H]3OC(=O)[C@](C)(C[C@H]4[C@]5(CO5)C5=CC(=O)OC(C)(C)C5=CC[C@@]41C)[C@@H]32`: the outcome in experiment [1] was Active.

Broadly, the pIC50 is the negative decadic logarithm of the IC50, by convention in mol/L. Regarding `C[C@H]1O[C@@H]2OC(=O)[C@]3(C)C[C@@H]4[C@](C)(C(=O)C=C5C(=CC(=O)OC5(C)C)[C@@]45CO5)[C@H](C1=O)[C@]23O`, the negative-log IC50 (pIC50) in experiment [2] was 5.17; in experiment [3], 5.25.

Turning to `COC(=O)[C@]12C(=O)[C@@H](C)O[C@@H]3OC(=O)[C@](C)(C[C@@H]4[C@]1(C)CC=C1C(=CC(=O)OC1(C)C)[C@@]4(C)O)[C@@H]32`, the outcome in experiment [1] was Active.

Take `C[C@H]1O[C@@H]2OC(=O)[C@]3(C)C[C@@H]4[C@@]5(C)C(=C1O[C@H]5C=C1C(=CC(=O)OC1(C)C)[C@@]41CO1)[C@]23O`: the outcome in experiment [1] was Active.

As for `COC(=O)[C@]12C(=O)[C@@H](C)O[C@@H]3OC(=O)[C@](C)(C[C@H]4[C@]5(CO5)C5=CC(=O)OC(C)(C)[C@]56O[C@@H]6C[C@@]41C)[C@@H]32`, in experiment [1], the outcome was Active.
